Source: US20250326744A1, “PIPERAZINE DERIVATIVE OR SALT THEREOF, AND PHARMACEUTICAL COMPOSITION” (priority 2022, published 2025)
Counter-ions that a name gives are not always drawn.

Legend:
mexB (PA) strain = assay: Combinational effect with antibacterial agent against Pseudomonas aeruginosa (Test Examples 2 and 4): mexB (PA) strain with LVFX, TC or AZT at 1/4 MIC, EC99; type: cell-based; details: for EC99, combinational effect with AZT, mexB (PA) / EC99, combinational effect with LVFX, mexB (PA) / EC99, combinational effect with TC, mexB (PA): mexB (PA) strain, Test Example 4; for EC99, combinational effect with AZT, mexB (PA) / EC99, mexB (PA), AZT: combined with AZT at 1/4 MIC; for EC99, combinational effect with LVFX, mexB (PA) / EC99, mexB (PA), LVFX: combined with LVFX at 1/4 MIC; for EC99, combinational effect with TC, mexB (PA) / EC99, mexB (PA), TC: combined with TC at 1/4 MIC; for EC99, mexB (PA), AZT / EC99, mexB (PA), LVFX / EC99, mexB (PA), TC: Table 52, Test Example 2, 16 to 20 hours culture, OD595
Procedure: (§1) The combinational effect of the test compound with the antibacterial agent against Pseudomonas aeruginosa was evaluated.
For the evaluation of the inhibitory ability against MexAB-OprM, a mutant strain of Pseudomonas aeruginosa in which MexAB-OprM was expressed as a main drug efflux pump (hereinafter, referred to as a “mexB (PA) strain”) was used. LVFX, TC, or AZT was used as the antibacterial agent used in combination.
The mexB (PA) strain is a strain produced by deleting the genes of MexCD-OprJ, MexEF-OprN, and MexXY in the drug efflux pump of Pseudomonas aeruginosa described in FEMS Microbiology Letters, 2001, Vol. 202, pp. 139 to 143. In the mexB (PA) strain, an expression level of MexB as a drug efflux pump is accelerated.
TC is a tetracycline-based antibacterial agent and is a drug that is discharged outside the bacteria by MexB. AZT is a monobactam-based antibacterial agent and is a drug that is discharged outside the bacteria by MexB.
(§2) AMK and GM are aminoglycoside-based antibacterial agents, and are drugs that are not discharged outside the bacteria by MexB but are discharged outside the bacteria by MexY For the culture of each Pseudomonas aeruginosa strain, a 96-well plate (amount of culture medium per well: 100 μL) was used, and cation-adjusted Mueller Hinton broth (CAMHB) was used. The inoculation amount of the bacteria was set to 10^4 to 5 CFU/well.
(§3) The mexB (PA) strain and the S-3769 strain were cultured for 16 to 20 hours in a culture medium to which each antibacterial agent and test compounds at various concentrations (0 to 800 μM) were added, and the proliferation of the bacterial strains was evaluated by optical turbidity at 595 nm (OD595). The concentration of the antibacterial agent in the culture medium was set to ¼ MIC.
(§4) The proliferation of bacteria in a case where the test compound and the antibacterial agent were not added was measured, and compared with the proliferation of bacteria in a case where the test compound in a case where the antibacterial agent was added at the concentration of ¼ MIC was contained, and the lowest concentration of the test compound at which the proliferation was inhibited by 99% or more was defined as the drug efflux pump inhibitory ability of the test compound as 99% inhibitory effect concentration (EC99).
(§5) The effect of suppressing the proliferation of each test compound in combination with an antibacterial agent at ¼ MIC for mexB (PA) or the S-3769 strain was evaluated as follows according to the value of EC99. • S: EC99≤12.5 μM • A: 12.5 μM<EC99≤25 μM • B: 25 μM<EC99≤100 μM • C: 100 μM<EC99
(§6) The combinational effect of the test compound with the antibacterial agent against Pseudomonas aeruginosa was evaluated in the same manner as in Test Example 2.

S-3769 strain = assay: Combinational effect with antibacterial agent against Pseudomonas aeruginosa (Test Examples 2 and 4): S-3769 strain with AMK or GM at 1/4 MIC, EC99; type: cell-based; details: for EC99, combinational effect with AMK, S-3769 strain / EC99, S-3769 strain, AMK: combined with AMK at 1/4 MIC; for EC99, combinational effect with AMK, S-3769 strain / EC99, combinational effect with GM, S-3769 strain: Test Example 4; for EC99, combinational effect with GM, S-3769 strain / EC99, S-3769 strain, GM: combined with GM at 1/4 MIC; for EC99, S-3769 strain, AMK / EC99, S-3769 strain, GM: Table 52, Test Example 2, 16 to 20 hours culture, OD595
Procedure: as §1
The […] was used for evaluating the inhibitory ability against MexXY-OprM. AMK or GM was used as the antibacterial agent used in combination.
The S-3769 strain is a clinically isolated strain collected from a domestic medical institution, and is a strain in which the expression level of MexY is accelerated.
as §2, §3, §4, §5, §6

| Compound | EC99, combinational effect with AZT, mexB (PA) (mexB (PA) strain) | EC99, combinational effect with LVFX, mexB (PA) (mexB (PA) strain) | EC99, combinational effect with TC, mexB (PA) (mexB (PA) strain) | EC99, combinational effect with AMK, S-3769 strain (S-3769 strain) | EC99, combinational effect with GM, S-3769 strain (S-3769 strain) | EC99, mexB (PA), AZT (mexB (PA) strain) | EC99, mexB (PA), LVFX (mexB (PA) strain) | EC99, mexB (PA), TC (mexB (PA) strain) | EC99, S-3769 strain, AMK (S-3769 strain) | EC99, S-3769 strain, GM (S-3769 strain) |
| --- | --- | --- | --- | --- | --- | --- | --- | --- | --- | --- |
| CCSc1cc(F)ccc1CN1CCN(C(=O)[C@H](N)C2CCN(CCc3cc(Cl)ccc3-c3cccc(F)c3)CC2)CC1 [Example 554, Hydrobromide of (R)-2-amino-2-(1-(2-(4-chloro-3′-fluoro-[1,1-biphenyl]-2-yl)ethyl)piperidin-4-yl)-1-(4-(2-(ethylthio)-4-fluorobenzyl)piperazin-1-yl)ethan-1-one] | S (EC99≤12.5 μM) | S (EC99≤12.5 μM) | S (EC99≤12.5 μM) | A (12.5 μM<EC99≤25 μM) | S (EC99≤12.5 μM) |  |  |  |  |  |
| N[C@@H](C(=O)N1CCN(Cc2c(O)cccc2C(F)(F)F)CC1)C1CCN(CCc2cc(Cl)ccc2-c2ccccc2)CC1 [Example 588, Hydrochloride of (R)-2-amino-2-(1-(2-(4-chloro-[1,1-biphenyl]-2-yl)ethyl)piperidin-4-yl)-1-(4-(2-hydroxy-6-(trifluoromethyl)benzyl)piperazin-1-yl) ethan-1-one] | B (25 μM<EC99≤100 μM) | A (12.5 μM<EC99≤25 μM) | A (12.5 μM<EC99≤25 μM) | A (12.5 μM<EC99≤25 μM) | A (12.5 μM<EC99≤25 μM) |  |  |  |  |  |
| CCOc1cccc(F)c1CN1CCN(C(=O)[C@H](N)C2CCN(CCc3cc(Cl)ccc3-c3cnc(NC)c(C)c3)CC2)CC1 [Example 563, Hydrobromide of (R)-2-amino-2-(1-(5-chloro-2-(5-methyl-6-(methylamino)pyridine-3-yl)phenethyl)piperidin-4-yl)-1-(4-(2-ethoxy-6-fluorobenzyl)piperazin-1-yl)ethan-1-one] | C (100 μM<EC99) | C (100 μM<EC99) | C (100 μM<EC99) | A (12.5 μM<EC99≤25 μM) | A (12.5 μM<EC99≤25 μM) |  |  |  |  |  |
| CCOc1cccc(F)c1CN1CCN(C(=O)[C@H](N)C2CCN(CCc3ccccc3-c3cc(F)cc(F)c3)CC2)CC1 [Example 48, Hydrobromide of (R)-2-amino-2-(1-(2-(3′,5′-difluoro-[1,1′-biphenyl]-2-yl)ethyl)piperidin-4-yl)-1-(4-(2-ethoxy-6-fluorobenzyl)piperazin-1-yl)ethan-1-one] |  |  |  |  |  | B (25 μM<EC99≤100 μM) | C (100 μM<EC99) | B (25 μM<EC99≤100 μM) | B (25 μM<EC99≤100 μM) | A (12.5 μM<EC99≤25 μM) |
| COc1cccc(SC)c1CN1CCN(C(=O)[C@H](N)C2CCN(CCc3cc(Cl)ccc3-c3ccccc3)CC2)CC1 [Example 522, Hydrobromide of (R)-2-amino-2-(1-(2-(4-chloro-[1,1-biphenyl]-2-yl)ethyl)piperidin-4-yl)-1-(4-(2-methoxy-6-(methylthio)benzyl)piperazin-1-yl)ethan-1-one] | B (25 μM<EC99≤100 μM) | A (12.5 μM<EC99≤25 μM) | B (25 μM<EC99≤100 μM) | A (12.5 μM<EC99≤25 μM) | B (25 μM<EC99≤100 μM) |  |  |  |  |  |
| COc1c(CN2CCN(C(=O)[C@H](N)C3CCN(CCc4cc(Cl)ccc4-c4ccccc4)CC3)CC2)cccc1B(O)O [Example 537, Hydrobromide of (R)-(3-((4-(2-amino-2-(1-(2-(4-chloro-[1,1-biphenyl]-2-yl)ethyl)piperidin-4-yl)acetyl)piperazin-1-yl)methyl)-2-methoxyphenyl)boronic acid] | C (100 μM<EC99) | C (100 μM<EC99) | B (25 μM<EC99≤100 μM) | B (25 μM<EC99≤100 μM) | A (12.5 μM<EC99≤25 μM) |  |  |  |  |  |
| CCOc1cccc(F)c1CN1CCN(C(=O)[C@H](N)C2CCN(CCc3cc(Cl)ccc3-c3cccc(P(C)(C)=O)c3)CC2)CC1 [Example 58, Hydrobromide of (R)-2-amino-2-(1-(2-(4-chloro-3′-(dimethylphosphoryl)-[1,1′-biphenyl]-2-yl)ethyl)piperidin-4-yl)-1-(4-(2-ethoxy-6-fluorobenzyl)piperazin-1-yl) ethan-1-one] |  |  |  |  |  | C (100 μM<EC99) | C (100 μM<EC99) | C (100 μM<EC99) | A (12.5 μM<EC99≤25 μM) | B (25 μM<EC99≤100 μM) |
| CCOc1cccc(F)c1CN1CCN(C(=O)[C@H](N)C2CCN(CCc3cc(Cl)ccc3-c3ccsc3)CC2)CC1 [Example 101, Hydrobromide of (R)-2-amino-2-(1-(5-chloro-2-(thiophen-3-yl)phenethyl)piperidin-4-yl)-1-(4-(2-ethoxy-6-fluorobenzyl)piperazin-1-yl)ethan-1-one] |  |  |  |  |  | B (25 μM<EC99≤100 μM) | C (100 μM<EC99) | B (25 μM<EC99≤100 μM) | S (EC99≤12.5 μM) | S (EC99≤12.5 μM) |
| CCSc1cc(F)ccc1CN1CCN(C(=O)[C@H](N)C2CCN(CCc3ncccc3-c3ccccc3)CC2)CC1 [Example 542, Hydrobromide of (R)-2-amino-1-(4-(2-(ethylthio)-4-fluorobenzyl)piperazin-1-yl)-2-(1-(2-(3-phenylpyridin-2-yl)ethyl)piperidin-4-yl)ethan-1-one] | B (25 μM<EC99≤100 μM) | B (25 μM<EC99≤100 μM) | B (25 μM<EC99≤100 μM) | B (25 μM<EC99≤100 μM) | B (25 μM<EC99≤100 μM) |  |  |  |  |  |
| CCOc1cccc(F)c1CN1CCN(C(=O)[C@H](N)C2CCN(CCc3cc(C)ccc3-c3ccccc3)CC2)CC1 [Example 81, Hydrobromide of (R)-2-amino-1-(4-(2-ethoxy-6-fluorobenzyl)piperazin-1-yl)-2-(1-(2-(4-methyl-[1,1′-biphenyl]-2-yl)ethyl)piperidin-4-yl)ethan-1-one] |  |  |  |  |  | B (25 μM<EC99≤100 μM) | B (25 μM<EC99≤100 μM) | B (25 μM<EC99≤100 μM) | S (EC99≤12.5 μM) | S (EC99≤12.5 μM) |
| CCOc1cccc(F)c1CN1CCN(C(=O)[C@H](N)C2CCN(CCc3cc(Cl)ccc3-c3cccc(O)c3)CC2)CC1 [Example 100, (R)-2-amino-2-(1-(2-(4-chloro-3′-hydroxy-[1,1′-biphenyl]-2-yl)ethyl)piperidin-4-yl)-1-(4-(2-ethoxy-6-fluorobenzyl)piperazin-1-yl)ethan-1-one] |  |  |  |  |  | A (12.5 μM<EC99≤25 μM) | A (12.5 μM<EC99≤25 μM) | A (12.5 μM<EC99≤25 μM) | S (EC99≤12.5 μM) | S (EC99≤12.5 μM) |
| CCOc1cccc(F)c1CN1CCN(C(=O)[C@H](N)C2CCN(CCc3cc(Cl)ccc3-c3ccc(C)cc3)CC2)CC1 [Example 69, Hydrobromide of (R)-2-amino-2-(1-(2-(4-chloro-4′-methyl-[1,1′-biphenyl]-2-yl)ethyl)piperidin-4-yl)-1-(4-(2-ethoxy-6-fluorobenzyl)piperazin-1-yl)ethan-1-one] |  |  |  |  |  | C (100 μM<EC99) | C (100 μM<EC99) | B (25 μM<EC99≤100 μM) | S (EC99≤12.5 μM) | S (EC99≤12.5 μM) |
